Source: patent publication US12521395B2, “Gem-disubstituted heterocyclic compounds and their use as IDH inhibitors” (NERVIANO MEDICAL SCIENCES S.R.L., priority 2019, dated 2026)

Experiments:
IDH2^R172K = molecular target: T1, IDH2^R172K (Homo sapiens, UniProt P48735, R172K); assay: NADPH depletion assay (diaphorase/resazurin), IDH2 R172K; assay type: biochemical; conditions: IDH2^R172K 16 nM, alpha-ketoglutarate 0.55 mM
T1 sequence (P48735 40-452 R172K): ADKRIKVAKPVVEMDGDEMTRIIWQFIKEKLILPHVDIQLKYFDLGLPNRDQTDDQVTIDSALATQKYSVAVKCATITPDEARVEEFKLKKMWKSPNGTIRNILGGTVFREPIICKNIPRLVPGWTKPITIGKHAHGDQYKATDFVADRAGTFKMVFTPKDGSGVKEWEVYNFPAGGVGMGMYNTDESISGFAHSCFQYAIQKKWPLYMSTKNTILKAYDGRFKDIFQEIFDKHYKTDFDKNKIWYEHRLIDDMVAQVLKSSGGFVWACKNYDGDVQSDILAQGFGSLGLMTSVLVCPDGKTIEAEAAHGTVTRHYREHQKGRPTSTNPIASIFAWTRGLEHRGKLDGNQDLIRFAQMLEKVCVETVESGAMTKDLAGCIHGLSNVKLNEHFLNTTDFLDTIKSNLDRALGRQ
Method: (§1) IDH mutated enzyme activity converting alpha-ketoglutarate to 2-hydroxyglutaric acid is measured using a NADPH depletion assay. In the assay the remaining cofactor is measured at the end of the reaction with the addition of a catalytic excess of diaphorase and resazurin, to generate a fluorescent signal in proportion to the amount of NADPH remaining. IDH1 WT enzyme as well as mutated isoforms IDH1^R132H, IDH1^R132C, and IDH2^R172K enzymes are commercially available proteins (see e.g. Sino Biological, Abcam, Active Motif or Creative BioMart).
(§2) IDH1^R132H homodimer enzyme are diluted to 8 nM, in 10 μL of Assay Buffer (150 mM NaCl, 50 mM Tris-HCl pH 7.6, 10 mM MgCl2, 0.001% Triton X-100, 4 mM β-mercaptoethanol); 0.2 μL of test compound, previously serially diluted 1 to 3, >10 experimental points from 1 mM in DMSO, is added and the mixture is incubated for 15 minutes at room temperature. The reaction is started with the addition of 10 μL of Substrate Mix (12 μM NADPH, 3.4 mM alpha-ketoglutarate in Assay Buffer) and the mixture is incubated for 60 minutes at room temperature. The reaction is terminated with the addition of 5 μl of Detection Buffer (100 μg/mL diaphorase, 30 μM resazurin, in IX Assay Buffer), and is incubated for 15 minutes before reading on a ViewLux as platereader at Ex544/Em590.
Compounds are assayed for their activity against IDH2^R172K following the same assay as above with the following modifications: IDH2^R172K and alpha-ketoglutarate final concentrations in the Assay Buffer is 16 nM and 0.55 mM, respectively.

IDH1^R132C = IDH1^R132C (Homo sapiens, UniProt O75874, R132C); assay: NADPH depletion assay (diaphorase/resazurin), IDH1 R132C; assay type: biochemical; conditions: IDH1^R132C 2 nM, alpha-ketoglutarate 0.14 mM; read-out: IDH1^R132C IC50
Method: as §1, §2
Compounds are assayed for their activity against IDH1^R132C following the same assay as above with the following modifications: IDH1^R132C and alpha-ketoglutarate final concentrations in the Assay Buffer is 2 nM and 0.14 mM, respectively.

IDH1 wild type enzyme = IDH1 wild type enzyme (Homo sapiens, UniProt O75874); assay: Enzymatic assay for IDH1 wild-type (NADPH forming assay); assay type: biochemical; conditions: 0.016 nM IDH1WT, 15 min preincubation
Method: IDH1WT enzymatic activity converting isocitric acid to alpha-ketoglutarate is measured using a NADPH forming assay. In the assay the forming cofactor is measured in continuous with the addition of a catalytic excess of diaphorase and resazurin, to generate a fluorescent signal in proportion to the amount of NADPH forming.
Compounds were preincubated with the enzyme, then the reaction was started by the addition of NADP+, isocitrate, diaphorase and a corresponding substrate, resazurin. Diaphorase reduces resazurin to the highly fluorescent resorufin with the concomitant oxidation of NADPH to NADP. Specifically, 0.2 μL of test compound, previously serially diluted 1 to 3, >10 experimental points from 1 mM in DMSO, was added to 0.016 nM IDH1WT enzyme in 10 μL of Assay Buffer (150 mM NaCl, 50 mM Tris-HCl pH 7.6, 10 mM MgCl2, 0.001% Triton X-100, 4 mM β-mercaptoethanol); the mixture is incubated for 15 minutes at room temperature. The reaction is started with the addition of 10 μL of Substrate Mix (400 μM NADP^+, 40 μM iso-citrate, 5 ugr/mL Diaphorase and 7 μM resazurin in Assay Buffer), the mixture is incubated at room temperature and the reaction is reading on a ViewLux as platereader at Ex544/Em590 in continuous.

[1] = tested on: cell lines HT-1080 (IDH1^R132C); assay: Cellular assay: inhibition of 2HG production, LC-MS/MS; assay type: cell-based; conditions: Homo sapiens, 72 hr incubation, 2-HG in cell culture media, read-out: HT1080 2-HG IC50
Method: Cell lines HT-1080 (commercially available) are maintained in E-MEM 10% FCS and incubated at 37° C. in a humidified 5% CO2 atmosphere.
Cells are seeded into 96 well black flat bottom plates at a density of 500 cells/well in 100 μL complete medium. After 24 hr the medium is replaced with 200 μL of fresh medium and compounds (dissolved into DMSO) are administrated to the cells using D300E Digital Dispenser (Tecan).
After 72 hr of incubation 100 μL from each well are collected and used for 2HG (R(−)-2-hydroxyglutarate) quantification. Levels of 2-HG in cell culture media are determined by LC-MS/MS. Cell supernatants (100 μL/well) are treated with 1 M aqueous trichloroacetic acid containing 130 μM of the internal standard 2-HG-d3 (20 μL/well) in a 96-well plate. The plates are sealed, mildly vortexed for 60 minutes, centrifuged at 4,000 RPM for 15 minutes, placed in a refrigerated autosampler taking care not to shake them, and aliquots of the upper part of the samples are directly injected in the chromatographic system. Calibration standards are obtained by ten folds dilution of aqueous 2-HG stock solutions with blank cell culture medium and denatured exactly in the same way as described above for samples. Samples and standards are assayed for 2-HG by reversed phase chromatography on a C18 column eluted with aqueous 0.15% formic acid and briefly washed with 90% methanol at the end of the run. 2-HG is determined by negative ion electrospray ionization with the internal standard method on a triple quadrupole mass spectrometer monitoring the MRM transitions 147>129 (2-HG) and 150>132 (2-HG-d3).
2-HG inhibition was calculated by comparing treated versus control data using Assay Explore (Symyx) software, with IC50 determined using a sigmoidal fitting algorithm.

IDH1^R132H = IDH1^R132H (Homo sapiens, UniProt O75874, R132H); assay: NADPH depletion assay (diaphorase/resazurin), IDH1 R132H; assay type: biochemical; conditions: 15 min preincubation, 60 min reaction, room temperature
Method: as §1, §2

Chain of IDH1^R132H (O75874 whole entry R132H): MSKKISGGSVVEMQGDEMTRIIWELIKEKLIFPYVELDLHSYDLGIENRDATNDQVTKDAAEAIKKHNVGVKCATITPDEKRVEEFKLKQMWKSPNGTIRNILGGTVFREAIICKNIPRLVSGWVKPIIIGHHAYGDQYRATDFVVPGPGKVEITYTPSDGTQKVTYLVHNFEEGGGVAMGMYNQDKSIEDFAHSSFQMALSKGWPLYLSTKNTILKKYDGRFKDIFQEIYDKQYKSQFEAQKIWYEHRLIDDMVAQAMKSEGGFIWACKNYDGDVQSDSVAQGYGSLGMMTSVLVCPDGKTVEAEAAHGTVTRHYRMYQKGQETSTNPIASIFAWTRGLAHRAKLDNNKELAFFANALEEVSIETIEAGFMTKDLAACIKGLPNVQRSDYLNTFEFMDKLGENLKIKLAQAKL
Chain of IDH1^R132C (O75874 whole entry R132C): as the sequence (O75874 whole entry R132H) above, with H132C counted along it
Chain of IDH1 wild type enzyme (O75874 whole entry): as the sequence (O75874 whole entry R132H) above, with H132R counted along it

Row | SMILES | IC50 (IDH1^R132C) [nM] | IC50 [1] [nM] | IC50 (IDH2^R172K) [nM] | IC50 (IDH1 wild type enzyme) [nM] | IC50 (IDH1^R132H) [nM]
1 | C=CC(=O)N1CCN(C2(c3ccc(C(C)(C)Nc4ncc5ccc(=O)n(C(C)C)c5n4)cc3)CCC(F)(F)CC2)CC1 [cpd 52, 2-[(2-{4-[1-(4-acryloylpiperazin-1-yl)-4,4-difluorocyclohexyl]phenyl}propan-2-yl)amino]-8-(propan-2-yl)pyrido[2,3-d]pyrimidin-7(8H)-one] | 9 | 4 | 322 | 321 | 14
2 | C=CC(=O)N1CCN(C(CC)(CC)c2ccc([C@H](C)Nc3ncc4ccc(=O)n(C(C)C)c4n3)cc2)CC1 [cpd 4, 2-{[(1S)-1-{4-[3-(4-acryloylpiperazin-1-yl)pentan-3-yl]phenyl}ethyl]amino}-8-(propan-2-yl)pyrido[2,3-d]pyrimidin-7(8H)-one] | 1.7 | 0.6 | 22.8 | 313 | 3.8
3 | C=CC(=O)N1CCN(C2(c3ccc([C@H](C)Nc4ncc5ccc(=O)n(C(C)C)c5n4)cc3)CCC(F)(F)CC2)CC1 [cpd 26, 2-{[(1S)-1-{4-[1-(4-acryloylpiperazin-1-yl)-4,4-difluorocyclohexyl]phenyl}ethyl]amino}-8-(propan-2-yl)pyrido[2,3-d]pyrimidin-7(8H)-one] | 2 | 0.5 | 126 | 126 | 3
4 | C=CC(=O)N1CCN(C2(c3ccc([C@H](C)Nc4cc5c(ccc(=O)n5C(C)C)cn4)cc3)CCC(F)(F)CC2)CC1 [cpd 47, 7-{[(1S)-1-{4-[1-(4-acryloylpiperazin-1-yl)-4,4-difluorocyclohexyl]phenyl}ethyl]amino}-1-(propan-2-yl)-1,6-naphthyridin-2(1H)-one] | 1 | 0.6 | 97 | 97.4 | 2
5 | C=CC(=O)N1CCN(C2(c3ccc([C@H](C)Nc4ncc5ccc(=O)n(CC)c5n4)cc3)CCOCC2)CC1 [cpd 14, 2-{[(1S)-1-{4-[4-(4-acryloylpiperazin-1-yl)tetrahydro-2H-pyran-4-yl]phenyl}ethyl]amino}-8-ethylpyrido[2,3-d]pyrimidin-7(8H)-one] | 4.4 | 4.8 | – | – | –
6 | C=CC(=O)N1CCN(C(C)(C)c2ccc([C@H](C)Nc3ncc4ccc(=O)n(C(C)C)c4n3)cc2)CC1 [cpd 2, 2-{[(1S)-1-{4-[2-(4-acryloylpiperazin-1-yl)propan-2-yl]phenyl}ethyl]amino}-8-(propan-2-yl)pyrido[2,3-d]pyrimidin-7(8H)-one] | 12 | 4.9 | – | – | –
7 | C=CC(=O)N1CCN(C2(c3ccc([C@H](C)Nc4cc5c(cn4)COC(=O)N5CC)cc3)CCOCC2)CC1 [cpd 44, 7-{[(1S)-1-{4-[4-(4-acryloylpiperazin-1-yl)tetrahydro-2H-pyran-4-yl]phenyl}ethyl]amino}-1-ethyl-1,4-dihydro-2H-pyrido[4,3-d][1,3]oxazin-2-one] | 9 | 4 | – | – | –

Continued by falling IC50 (IDH1^R132C), values first:

Row | IC50 (IDH1^R132C) [nM] | IC50 [1] [nM] | SMILES | IC50 (IDH2^R172K) [nM] | IC50 (IDH1 wild type enzyme) [nM] | IC50 (IDH1^R132H) [nM]
8 | 1460 | 122 | CC(C)n1c(=O)ccc2cnc(N[C@@H](C)c3ccc(C4(N5CCN(C(=O)CCCl)CC5)CCOCC4)cc3)nc21 [cpd 23, 2-{[(1S)-1-(4-{4-[4-(3-chloropropanoyl)piperazin-1-yl]tetrahydro-2H-pyran-4-yl}phenyl)ethyl]amino}-8-(propan-2-yl) pyrido[2,3-d]pyrimidin-7(8H)-one] | – | – | –
9 | 48 | 7.5 | C=CC(=O)N1CCN(C2(c3ccc(C4(Nc5ncc6ccc(=O)n(C(C)C)c6n5)CC4)cc3)CCOCC2)CC1 [cpd 30, 2-[(1-{4-[4-(4-acryloylpiperazin-1-yl)tetrahydro-2H-pyran-4-yl]phenyl}cyclopropyl)amino]-8-(propan-2-yl)pyrido[2,3-d]pyrimidin-7(8H)-one] | – | – | –
10 | 28 | 40 | CC(C)n1c(=O)ccc2cnc(N[C@@H](C)c3ccc(C4(N(C)C5CN(C(=O)C(F)Cl)C5)CCC(F)(F)CC4)cc3)nc21 (stereo partly drawn) [cpd 53, 2-{[(1S)-1-(4-{1-[{1-[chloro(fluoro)acetyl]azetidin-3-yl}(methyl)amino]-4,4-difluorocyclohexyl}phenyl)ethyl]amino}-8-(propan-2-yl)pyrido[2,3-d]pyrimidin-7(8H)-one] | – | – | –
11 | 24.7 | 9 | C=CC(=O)N1CCN(C2(c3ccc([C@H](C)Nc4ncc5c(C)cc(=O)n(C6CCCC6)c5n4)cc3)CCOCC2)CC1 [cpd 15, 2-{[(1S)-1-{4-[4-(4-acryloylpiperazin-1-yl)tetrahydro-2H-pyran-4-yl]phenyl}ethyl]amino}-8-cyclopentyl-5-methylpyrido[2,3-d]pyrimidin-7(8H)-one] | – | – | –
12 | 5 | 10 | C=CC(=O)N1CC(N(C)C2(c3ccc([C@H](C)Nc4ncc5ccc(=O)n(C(C)C)c5n4)cc3)CCC(F)(F)CC2)C1 [cpd 50, 2-{[(1S)-1-(4-{1-[(1-acryloylazetidin-3-yl)(methyl)amino]-4,4-difluorocyclohexyl}phenyl)ethyl]amino}-8-(propan-2-yl) pyrido[2,3-d]pyrimidin-7(8H)-one] | 516 | 516 | 20
13 | 3.3 | 2.4 | C=CC(=O)N1CCN(C2(c3ccc([C@H](C)Nc4ncc5ccc(=O)n(C(C)C)c5n4)cc3)CCOCC2)CC1 [cpd 1, 2-{[(1S)-1-{4-[4-(4-acryloylpiperazin-1-yl)tetrahydro-2H-pyran-4-yl]phenyl}ethyl]amino}-8-(propan-2-yl)pyrido[2,3-d]pyrimidin-7(8H)-one] | 111 | 133 | 3.5
